ChEMBL document CHEMBL1201862, “PubChem BioAssay data set” (2004)
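Values below derive from 48-hour exposures of cells grown in 96-well plates, with endpoints linearly interpolated between the two concentrations bracketing the appropriate inhibition level. GI50 is the concentration that inhibits growth by half.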 Activity calls are given as the source filed them. No stated cut-off is given here; in the data, active = GI50 up to about 1.1 µM and inactive = higher.

Legend:
Assay in all cases: NCI anticancer screen, dose series, 48 h
HOP-92 = tested on: HOP-92
SN12C = tested on: SN12C
UO-31 = tested on: UO-31
A498 = tested on: A498
SF-295 = tested on: SF-295
DMS-114 = tested on: DMS-114
MOLT-4 = tested on: MOLT-4
HOP-62 = tested on: HOP-62
NCI-H460 = tested on: NCI-H460
HOP-18 = tested on: HOP-18
SF-539 = tested on: SF-539
SNB-75 = tested on: SNB-75
SK-OV-3 = tested on: SK-OV-3
CAKI-1 = tested on: CAKI-1
UACC-62 = tested on: UACC-62
A549 = tested on: A549
M19-MEL = tested on: M19-MEL
KM12 = tested on: KM12
HCC 2998 = tested on: HCC 2998
U-251 = tested on: U-251
DMS-273 = tested on: DMS-273
M14 = tested on: M14
RPMI-8226 = tested on: RPMI-8226
OVCAR-3 = tested on: OVCAR-3
HL-60 = tested on: HL-60
SNB-19 = tested on: SNB-19
XF498 = tested on: XF498
COLO 205 = tested on: COLO 205
HT-29 = tested on: HT-29
TK-10 = tested on: TK-10
SK-MEL-5 = tested on: SK-MEL-5
HCT-15 = tested on: HCT-15
OVCAR-8 = tested on: OVCAR-8
SW-620 = tested on: SW-620
Malme-3M = tested on: Malme-3M
NCI-H23 = tested on: NCI-H23
OVCAR-5 = tested on: OVCAR-5
SF-268 = tested on: SF-268
LOX IMVI = tested on: LOX IMVI
CCRF-CEM = tested on: CCRF-CEM
K562 = tested on: K562
NCI-H226 = tested on: NCI-H226
SR = tested on: SR
HCT-116 = tested on: HCT-116
IGROV-1 = tested on: IGROV-1
786-0 = tested on: 786-0
LXFL 529 = tested on: LXFL 529
KM-20L2 = tested on: KM-20L2
DLD-1 = tested on: DLD-1
ACHN = tested on: ACHN
EKVX = tested on: EKVX
SK-MEL-2 = tested on: SK-MEL-2
SNB-78 = tested on: SNB-78
SK-MEL-28 = tested on: SK-MEL-28
UACC-257 = tested on: UACC-257
OVCAR-4 = tested on: OVCAR-4
RXF 393 = tested on: RXF 393
NCI-H522 = tested on: NCI-H522

CC1OC(n2cc(I)c(=O)[nH]c2=O)C=CC1=O (stereo not drawn)
GI50 (HOP-92): 19.7 µM (inactive) | GI50 (SN12C): 18.7 µM (inactive) | GI50 (UO-31): 16.9 µM (inactive) | GI50 (A498): 16.1 µM (inactive) | GI50 (SF-295): 18.5 µM (inactive) | GI50 (DMS-114): 17 µM (inactive) | GI50 (MOLT-4): 14.1 µM (inactive) | GI50 (HOP-62): 18.5 µM (inactive) | GI50 (NCI-H460): 18.8 µM (inactive) | GI50 (HOP-18): 16.7 µM (inactive) | GI50 (SF-539): 14.1 µM (inactive) | GI50 (SNB-75): 17.2 µM (inactive) | GI50 (SK-OV-3): 29.2 µM (inactive) | GI50 (CAKI-1): 16 µM (inactive) | GI50 (UACC-62): 17.2 µM (inactive) | GI50 (A549): 26.7 µM (inactive) | GI50 (M19-MEL): 16.4 µM (inactive) | GI50 (KM12): 13 µM (inactive) | GI50 (HCC 2998): 17.5 µM (inactive) | GI50 (U-251): 14.4 µM (inactive) | GI50 (DMS-273): 17.2 µM (inactive) | GI50 (M14): 16.9 µM (inactive) | GI50 (RPMI-8226): 13.9 µM (inactive) | GI50 (OVCAR-3): 17.5 µM (inactive) | GI50 (HL-60): 6.82 µM (inactive) | GI50 (SNB-19): 17.7 µM (inactive) | GI50 (XF498): 19.2 µM (inactive) | GI50 (COLO 205): 17 µM (inactive) | GI50 (HT-29): 16.8 µM (inactive) | GI50 (TK-10): 18.6 µM (inactive) | GI50 (SK-MEL-5): 16 µM (inactive) | GI50 (HCT-15): 17.1 µM | GI50 (OVCAR-8): 17.1 µM (inactive) | GI50 (SW-620): 13.2 µM (inactive) | GI50 (Malme-3M): 14.9 µM (inactive) | GI50 (NCI-H23): 17 µM (inactive) | GI50 (OVCAR-5): 25 µM (inactive) | GI50 (SF-268): 14.1 µM (inactive) | GI50 (LOX IMVI): 6.47 µM (inactive) | GI50 (CCRF-CEM): 2.43 µM (inactive) | GI50 (K562): 3.92 µM (inactive) | GI50 (NCI-H226): 17.6 µM (inactive) | GI50 (SR): 12.6 µM (inactive) | GI50 (HCT-116): 11.8 µM (inactive) | GI50 (IGROV-1): 20.4 µM (inactive) | GI50 (786-0): 14 µM (inactive) | GI50 (LXFL 529): 10.8 µM (inactive) | GI50 (KM-20L2): 17 µM (inactive) | GI50 (DLD-1): 13.2 µM (inactive) | GI50 (ACHN): 17.7 µM (inactive) | GI50 (EKVX): 17.5 µM (inactive) | GI50 (SK-MEL-2): 17.9 µM (inactive) | GI50 (SNB-78): 14.7 µM (inactive) | GI50 (SK-MEL-28): 15.7 µM (inactive) | GI50 (UACC-257): 14.7 µM (inactive) | GI50 (OVCAR-4): 16.3 µM (inactive)

Cc1cc2c(cc1C)N1Cc3c(ccc(C)c3C)N(C2)C1.Cc1cc2c(cc1C)N1Cc3cc(C)c(C)cc3N(C2)C1
GI50 (SN12C): 10 µM (inactive) | GI50 (SF-295): 89.5 µM (inactive) | GI50 (DMS-114): > 100 µM (inactive) | GI50 (MOLT-4): > 100 µM (inactive) | GI50 (HOP-62): 74.5 µM (inactive) | GI50 (NCI-H460): > 100 µM (inactive) | GI50 (HOP-18): > 100 µM (inactive) | GI50 (SF-539): > 100 µM (inactive) | GI50 (SNB-75): > 100 µM (inactive) | GI50 (SK-OV-3): > 100 µM (inactive) | GI50 (UACC-62): > 100 µM (inactive) | GI50 (A549): > 100 µM (inactive) | GI50 (M19-MEL): > 100 µM (inactive) | GI50 (KM12): > 100 µM (inactive) | GI50 (HCC 2998): > 100 µM (inactive) | GI50 (U-251): > 100 µM (inactive) | GI50 (RXF 393): 35.6 µM (inactive) | GI50 (DMS-273): > 100 µM (inactive) | GI50 (M14): > 100 µM (inactive) | GI50 (RPMI-8226): > 100 µM (inactive) | GI50 (OVCAR-3): > 100 µM (inactive) | GI50 (HL-60): 35.2 µM (inactive) | GI50 (SNB-19): > 100 µM (inactive) | GI50 (XF498): > 100 µM (inactive) | GI50 (COLO 205): > 100 µM (inactive) | GI50 (HT-29): > 100 µM (inactive) | GI50 (TK-10): > 100 µM (inactive) | GI50 (SK-MEL-5): > 100 µM (inactive) | GI50 (OVCAR-8): > 100 µM (inactive) | GI50 (SW-620): > 100 µM (inactive) | GI50 (NCI-H23): 92.5 µM (inactive) | GI50 (SF-268): > 100 µM (inactive) | GI50 (LOX IMVI): 86.7 µM (inactive) | GI50 (CCRF-CEM): > 100 µM (inactive) | GI50 (K562): 70.8 µM (inactive) | GI50 (NCI-H226): > 100 µM (inactive) | GI50 (HCT-116): > 100 µM (inactive) | GI50 (IGROV-1): > 100 µM (inactive) | GI50 (786-0): > 100 µM (inactive) | GI50 (LXFL 529): > 100 µM (inactive) | GI50 (KM-20L2): 52 µM (inactive) | GI50 (DLD-1): > 100 µM (inactive) | GI50 (NCI-H522): 53.6 µM (inactive) | GI50 (EKVX): > 100 µM (inactive) | GI50 (SNB-78): > 100 µM (inactive) | GI50 (SK-MEL-28): > 100 µM (inactive) | GI50 (OVCAR-4): > 100 µM (inactive)

CCCCCCCCC(O)c1ccc(/C=C\C(O)CCCC(=O)O)s1 (stereo not drawn)
GI50 (HOP-92): > 100 µM (inactive) | GI50 (SN12C): > 100 µM (inactive) | GI50 (UO-31): > 100 µM (inactive) | GI50 (SF-295): > 100 µM (inactive) | GI50 (DMS-114): > 100 µM (inactive) | GI50 (MOLT-4): > 100 µM (inactive) | GI50 (NCI-H460): > 100 µM (inactive) | GI50 (HOP-18): > 100 µM (inactive) | GI50 (SF-539): > 100 µM (inactive) | GI50 (SNB-75): > 100 µM (inactive) | GI50 (SK-OV-3): > 100 µM (inactive) | GI50 (UACC-62): > 100 µM (inactive) | GI50 (A549): > 100 µM (inactive) | GI50 (M19-MEL): > 100 µM (inactive) | GI50 (KM12): > 100 µM (inactive) | GI50 (HCC 2998): > 100 µM (inactive) | GI50 (U-251): > 100 µM (inactive) | GI50 (RXF 393): > 100 µM (inactive) | GI50 (DMS-273): > 100 µM (inactive) | GI50 (M14): > 100 µM (inactive) | GI50 (RPMI-8226): > 100 µM (inactive) | GI50 (OVCAR-3): > 100 µM (inactive) | GI50 (HL-60): > 100 µM (inactive) | GI50 (SNB-19): > 100 µM (inactive) | GI50 (XF498): > 100 µM (inactive) | GI50 (COLO 205): > 100 µM (inactive) | GI50 (HT-29): > 100 µM (inactive) | GI50 (TK-10): > 100 µM (inactive) | GI50 (SK-MEL-5): > 100 µM (inactive) | GI50 (HCT-15): > 100 µM | GI50 (OVCAR-8): > 100 µM (inactive) | GI50 (SW-620): > 100 µM (inactive) | GI50 (Malme-3M): > 100 µM (inactive) | GI50 (NCI-H23): > 100 µM (inactive) | GI50 (OVCAR-5): > 100 µM (inactive) | GI50 (SF-268): > 100 µM (inactive) | GI50 (LOX IMVI): > 100 µM (inactive) | GI50 (CCRF-CEM): > 100 µM (inactive) | GI50 (K562): > 100 µM (inactive) | GI50 (NCI-H226): > 100 µM (inactive) | GI50 (SR): > 100 µM (inactive) | GI50 (HCT-116): > 100 µM (inactive) | GI50 (IGROV-1): > 100 µM (inactive) | GI50 (786-0): > 100 µM (inactive) | GI50 (LXFL 529): > 100 µM (inactive) | GI50 (KM-20L2): > 100 µM (inactive) | GI50 (DLD-1): > 100 µM (inactive) | GI50 (NCI-H522): > 100 µM (inactive) | GI50 (ACHN): > 100 µM (inactive) | GI50 (EKVX): > 100 µM (inactive) | GI50 (SK-MEL-2): > 100 µM (inactive) | GI50 (SNB-78): > 100 µM (inactive) | GI50 (SK-MEL-28): > 100 µM (inactive) | GI50 (UACC-257): > 100 µM (inactive) | GI50 (OVCAR-4): > 100 µM (inactive)
